This is an account of results in US9382254B2, “Compounds and pharmaceutical compositions thereof for the treatment of cystic fibrosis” (Galapagos NV, priority 2013, dated 2016).

One test deals with T1, CFTR ΔF508 mutant (Homo sapiens, UniProt P13569, DEL508-508).
T1 construct: expressed in transfected cells; host or cells: CFBE41o- (adenoviral transduction)
In words: YFP-halide influx assay for the CFTR-ΔF508 mutation (384 well, FDSS/μCell). The settings on record: CFBE41o- cells, CFTR-ΔF508, 1×D-PBS, fluorescence after 36 seconds. The format is cell-based. The text has this:
The YFP halide influx assay measures the functionality of the cystic fibrosis Transmembrane Conductance regulator (CFTR) channels in the cystic fibrosis bronchial epithelium cell line CFBE41o-. The assay is used to evaluate the capacity of compounds to increase the open probability of existing CFTR channels in the membrane. It makes use of the observation that the yellow fluorescent protein (YFP) variant YFP H148Q, I152L has its fluorescence substantially quenched by halide ions like Cl— and I—. (Galietta, Haggie, & Verkman, 2001) (Nagai, et al., 2002)
For this purpose, CFBE41o-cells are seeded in 384 well plates (3000 CFBE cells/well). One day after seeding, the CFBE cells are transduced with adenoviral vectors that direct the expression of the CFTR ΔF508 mutant and of the YFP reporter. Cells are incubated at 27° C., 5% CO2 for 24 hours so as to allow for the proper folding and migration to the membrane of the CFTR channel or treated with a CFTR modulator during 24 h at 37° C.
The I— induced quenching of fluorescence is recorded […] immediately after injection of I— for 2 min on an FDSS/μCell (Hamamatsu). The capacity of a compound to increase the channel opening is directly correlated with the decrease in fluorescence, and is expressed as (1-(fluorescence after 36 seconds (F)/fluorescence before injection (F0))) and an EC50 can be derived from a (1-F/F0) vs compound concentration plot.

The target in another test is T2, CFTR G551D mutant (Homo sapiens, UniProt P13569, G551D).
T2 construct: expressed in transfected cells; host or cells: HEK293 (reverse transfection with plasmid)
The test is described as follows: YFP-halide influx assay for the CFTR-G551D mutation. The settings on record: HEK293 cells, forskolin 10.67 μM. In kind it is cell-based. The text has this:
The YFP halide influx assay measures the functionality of the cystic fibrosis Transmembrane Conductance regulator (CFTR) channels. The assay is used to evaluate the capacity of compounds to increase the channel opening of existing mutant CFTR channels in the membrane. It makes use of the observation that the yellow fluorescent protein (YFP) variant YFP H148Q, I152L, […] has its fluorescence substantially quenched by halide ions like Cl^− and I^−. (Galietta, Haggie, & Verkman, 2001)
For this purpose, HEK293-cells are seeded in 96 well plates. During seeding, the cells are reverse-transfected with plasmid vectors that direct the expression of the CFTR G551D mutant and of the YFP reporter. Cells are incubated at 37° C., 5% CO2 for 24 hours so as to allow for sufficient expression of the CFTR protein.
The I^−-induced quenching of fluorescence is recorded immediately after injection of I^− for 7 seconds. The capacity of a compound to increase the channel opening is directly correlated with the decrease in fluorescence, and is expressed as (1-(fluorescence after 7 seconds (F)/fluorescence before injection (F0))) and an EC50 can be derived from a (1-F/F0) vs compound concentration plot.

T1 sequence (P13569 with tags, fused parts or gaps DEL508-508): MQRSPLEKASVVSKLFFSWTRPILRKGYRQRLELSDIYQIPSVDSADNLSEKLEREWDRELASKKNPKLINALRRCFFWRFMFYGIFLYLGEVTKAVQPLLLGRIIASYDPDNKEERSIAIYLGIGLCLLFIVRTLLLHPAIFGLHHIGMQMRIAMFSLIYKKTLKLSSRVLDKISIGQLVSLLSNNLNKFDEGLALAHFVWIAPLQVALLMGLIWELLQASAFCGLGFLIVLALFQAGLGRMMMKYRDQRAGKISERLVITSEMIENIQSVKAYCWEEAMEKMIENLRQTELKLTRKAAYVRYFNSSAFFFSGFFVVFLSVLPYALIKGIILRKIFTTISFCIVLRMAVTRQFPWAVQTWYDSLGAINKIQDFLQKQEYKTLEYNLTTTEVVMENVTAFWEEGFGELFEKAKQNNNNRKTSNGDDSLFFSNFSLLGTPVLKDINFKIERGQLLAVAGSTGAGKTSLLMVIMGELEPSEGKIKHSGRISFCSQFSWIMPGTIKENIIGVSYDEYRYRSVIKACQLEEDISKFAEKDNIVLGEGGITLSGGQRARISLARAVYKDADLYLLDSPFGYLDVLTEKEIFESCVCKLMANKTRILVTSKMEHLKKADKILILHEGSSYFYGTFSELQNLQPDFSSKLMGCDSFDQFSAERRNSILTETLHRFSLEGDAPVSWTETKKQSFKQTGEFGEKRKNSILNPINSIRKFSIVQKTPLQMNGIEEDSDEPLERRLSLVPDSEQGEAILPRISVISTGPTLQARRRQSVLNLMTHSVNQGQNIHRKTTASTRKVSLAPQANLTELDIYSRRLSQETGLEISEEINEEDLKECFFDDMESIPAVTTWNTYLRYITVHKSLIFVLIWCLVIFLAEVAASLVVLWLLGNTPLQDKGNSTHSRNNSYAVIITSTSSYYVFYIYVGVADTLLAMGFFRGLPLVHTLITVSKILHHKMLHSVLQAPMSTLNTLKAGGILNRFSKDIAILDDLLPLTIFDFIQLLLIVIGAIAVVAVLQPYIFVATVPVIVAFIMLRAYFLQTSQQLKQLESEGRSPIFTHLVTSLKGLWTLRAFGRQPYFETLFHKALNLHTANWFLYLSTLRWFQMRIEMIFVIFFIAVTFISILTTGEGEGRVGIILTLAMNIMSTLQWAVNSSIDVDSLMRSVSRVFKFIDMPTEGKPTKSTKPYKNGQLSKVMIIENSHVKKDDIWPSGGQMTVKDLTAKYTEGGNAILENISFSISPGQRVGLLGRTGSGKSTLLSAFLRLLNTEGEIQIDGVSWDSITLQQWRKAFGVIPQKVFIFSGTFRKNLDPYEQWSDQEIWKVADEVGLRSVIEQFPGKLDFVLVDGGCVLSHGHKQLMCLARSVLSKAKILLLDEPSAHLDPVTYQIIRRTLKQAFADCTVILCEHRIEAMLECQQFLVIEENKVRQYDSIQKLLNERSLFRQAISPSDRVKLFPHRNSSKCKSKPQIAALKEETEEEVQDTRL
T2 sequence (P13569 whole entry G551D): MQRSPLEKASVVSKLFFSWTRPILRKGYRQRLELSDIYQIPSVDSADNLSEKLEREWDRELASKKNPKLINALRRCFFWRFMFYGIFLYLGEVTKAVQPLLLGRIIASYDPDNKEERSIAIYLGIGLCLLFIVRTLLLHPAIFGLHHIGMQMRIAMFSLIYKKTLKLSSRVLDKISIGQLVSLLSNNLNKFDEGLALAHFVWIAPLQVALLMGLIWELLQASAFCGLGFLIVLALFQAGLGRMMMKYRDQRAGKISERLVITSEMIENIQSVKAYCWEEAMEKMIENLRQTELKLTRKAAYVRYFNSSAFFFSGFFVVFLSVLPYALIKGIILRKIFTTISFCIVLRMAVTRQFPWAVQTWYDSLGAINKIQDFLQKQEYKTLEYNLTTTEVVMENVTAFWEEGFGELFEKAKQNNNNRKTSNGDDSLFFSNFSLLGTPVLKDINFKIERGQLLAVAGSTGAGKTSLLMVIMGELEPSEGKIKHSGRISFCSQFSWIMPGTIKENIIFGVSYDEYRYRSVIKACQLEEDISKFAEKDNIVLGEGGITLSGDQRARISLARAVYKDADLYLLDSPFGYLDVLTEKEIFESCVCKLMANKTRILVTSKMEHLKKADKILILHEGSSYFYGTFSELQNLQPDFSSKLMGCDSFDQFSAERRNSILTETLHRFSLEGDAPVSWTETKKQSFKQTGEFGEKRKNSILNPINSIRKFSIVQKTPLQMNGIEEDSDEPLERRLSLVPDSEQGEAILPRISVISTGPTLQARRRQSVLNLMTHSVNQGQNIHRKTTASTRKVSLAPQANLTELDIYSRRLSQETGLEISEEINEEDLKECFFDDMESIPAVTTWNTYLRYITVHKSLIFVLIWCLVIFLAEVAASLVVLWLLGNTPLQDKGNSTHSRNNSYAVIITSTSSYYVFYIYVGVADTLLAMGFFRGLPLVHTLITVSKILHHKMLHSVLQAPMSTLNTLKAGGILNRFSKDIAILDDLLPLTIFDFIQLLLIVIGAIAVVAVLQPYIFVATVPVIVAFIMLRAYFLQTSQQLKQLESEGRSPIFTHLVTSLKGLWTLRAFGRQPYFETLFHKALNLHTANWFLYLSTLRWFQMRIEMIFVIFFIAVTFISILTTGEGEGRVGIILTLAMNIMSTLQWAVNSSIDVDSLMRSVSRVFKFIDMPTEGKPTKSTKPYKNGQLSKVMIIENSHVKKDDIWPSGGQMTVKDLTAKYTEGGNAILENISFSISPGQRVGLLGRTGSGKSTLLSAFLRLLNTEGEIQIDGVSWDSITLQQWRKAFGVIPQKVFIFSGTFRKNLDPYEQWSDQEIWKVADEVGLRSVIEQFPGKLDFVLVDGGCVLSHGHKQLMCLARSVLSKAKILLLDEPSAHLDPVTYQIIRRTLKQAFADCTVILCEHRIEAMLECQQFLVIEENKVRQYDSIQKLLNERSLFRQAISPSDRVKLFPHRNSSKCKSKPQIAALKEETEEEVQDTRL

Broadly, the EC50 is the midpoint of the concentration-response curve. High values mean a less potent agent, low ones a more potent agent. On to `CC(C)(C)C(O)C(=O)Nc1sc(S(=O)(=O)c2ccc(OC(F)(F)F)cc2)cc1C(N)=O` (stereo not shown) [Compound 349, 2-[(2-hydroxy-3,3-dimethyl-butanoyl)amino]-5-[4-(trifluoromethoxy)phenyl] sulfonyl-thiophene-3-carboxamide], for which the EC50 at CFTR ΔF508 mutant was determined as 0.343 µM; on CFTR G551D mutant, 0.931 µM.
Taken in the same sequence, the figures for `CC(CO)C(=O)Nc1sc(S(=O)(=O)c2ccc(OC(F)(F)F)cc2)cc1C(N)=O` (stereo not shown) [Compound 350, 2-[(3-hydroxy-2-methyl-propanoyl)amino]-5-[4-(trifluoromethoxy)phenyl] sulfonyl-thiophene-3-carboxamide] were 0.039 µM and 0.668 µM.
In the case of `CC(CO)C(=O)Nc1sc(S(=O)(=O)c2cc(F)ccc2OC(F)(F)F)cc1C(N)=O` (stereo not shown) [Compound 351, 5-[5-fluoro-2-(trifluoromethoxy)phenyl] sulfonyl-2-[(3-hydroxy-2-methyl-propanoyl)amino] thiophene-3-carboxamide], the EC50 at CFTR ΔF508 mutant was 0.003 µM; at CFTR G551D mutant, 0.0373 µM.
Taken in the same sequence, the figures for `C[C@H](O)C(=O)Nc1sc(S(=O)(=O)c2c(Cl)cc(F)cc2Cl)cc1C(N)=O` [Compound 355, 5-(2,6-dichloro-4-fluoro-phenyl)sulfonyl-2-[[(2S)-2-hydroxypropanoyl]amino] thiophene-3-carboxamide] were 0.0054 µM and 0.942 µM.
`CC(C)[C@H](O)C(=O)Nc1sc(S(=O)(=O)c2ccc(F)cc2C(F)(F)F)cc1C(N)=O` [Compound 356, 5-[4-fluoro-2-(trifluoromethyl)phenyl] sulfonyl-2-[[(2S)-2-hydroxy-3-methyl-butanoyl]amino] thiophene-3-carboxamide]: the EC50 on CFTR ΔF508 mutant was found to be 0.0172 µM; at CFTR G551D mutant, 0.502 µM.
Taken in the same sequence, the figures for `NC(=O)c1cc(S(=O)(=O)c2ccc(OC(F)(F)F)cc2)sc1NC(=O)C1(CO)CC1` [Compound 357, 2-[[1-(hydroxymethyl)cyclopropanecarbonyl]amino]-5-[4-(trifluoromethoxy)phenyl] sulfonyl-thiophene-3-carboxamide] were 0.0297 µM and 0.301 µM.
Taken in the same sequence, the figures for `CC(C)(O)C(=O)Nc1sc(S(=O)(=O)c2ccc(Cl)cc2)cc1C(N)=O` [Compound 358, 5-(4-chlorophenyl)sulfonyl-2-[(2-hydroxy-2-methyl-propanoyl)amino] thiophene-3-carboxamide] were 0.11 µM and 2.68 µM.
The like results for `CC(CO)C(=O)Nc1sc(S(=O)(=O)c2ccc(F)cc2C(F)(F)F)cc1C(N)=O` (stereo not shown) [Compound 359, 5-[4-fluoro-2-(trifluoromethyl)phenyl] sulfonyl-2-[(3-hydroxy-2-methyl-propanoyl)amino] thiophene-3-carboxamide] were, in that order, 0.00963 µM and 2.06 µM.
For `CC(C)[C@H](O)C(=O)Nc1sc(S(=O)(=O)c2ccc(F)cc2Cl)cc1C(N)=O` [Compound 361, 5-(2-chloro-4-fluoro-phenyl)sulfonyl-2-[[(2S)-2-hydroxy-3-methyl-butanoyl]amino] thiophene-3-carboxamide], the EC50 on CFTR ΔF508 mutant is 0.00701 µM; at CFTR G551D mutant it was 0.28 µM.
The like results for `CC(CO)C(=O)Nc1sc(S(=O)(=O)c2ccc(Cl)cc2)cc1C(N)=O` (stereo not shown) [Compound 362, 5-(4-chlorophenyl)sulfonyl-2-[(3-hydroxy-2-methyl-propanoyl)amino] thiophene-3-carboxamide] were, in that order, 0.0223 µM and 1.23 µM.
The like results for `NC(=O)c1cc(S(=O)(=O)c2ccc(OC(F)(F)F)cc2)sc1NC(=O)C1(CO)CCC1` [Compound 364, 2-[[1-(hydroxymethyl)cyclobutanecarbonyl]amino]-5-[4-(trifluoromethoxy)phenyl] sulfonyl-thiophene-3-carboxamide] were, in that order, 0.0304 µM and 0.366 µM.
The like results for `CC(C)(C)[C@H](O)C(=O)Nc1sc(S(=O)(=O)c2ccc(C(F)(F)F)cc2)cc1C(N)=O` [Compound 365, 2-[[(2S)-2-hydroxy-3,3-dimethyl-butanoyl]amino]-5-[4-(trifluoromethyl)phenyl] sulfonyl-thiophene-3-carboxamide] were, in that order, 0.0299 µM and 0.306 µM.
With `COc1ccc(OC(F)(F)F)c(S(=O)(=O)c2cc(C(N)=O)c(NC(=O)C(C)CO)s2)c1` (stereo not shown) [Compound 370, 2-[(3-hydroxy-2-methyl-propanoyl)amino]-5-[5-methoxy-2-(trifluoromethoxy)phenyl]sulfonyl-thiophene-3-carboxamide], the EC50 on CFTR ΔF508 mutant was found to be 0.0025 µM; on CFTR G551D mutant, 0.0574 µM.
The like results for `COCCOc1ccc(S(=O)(=O)c2cc(C(N)=O)c(NC(=O)C(C)(C)O)s2)cc1` [Compound 371, 2-[(2-hydroxy-2-methyl-propanoyl)amino]-5-[4-(2-methoxyethoxy)phenyl] sulfonyl-1-thiophene-3-carboxamide] were, in that order, 0.107 µM and 3.33 µM.
The like results for `CC(C)(O)C(=O)Nc1sc(S(=O)(=O)c2cc(C#N)ccc2OC(F)(F)F)cc1C(N)=O` [Compound 372, 5-[5-cyano-2-(trifluoromethoxy)phenyl] sulfonyl-2-[(2-hydroxy-2-methyl-propanoyl)amino] thiophene-3-carboxamide] were, in that order, 0.0048 µM and 0.0726 µM.
`CC(C)(O)C(=O)Nc1sc(S(=O)(=O)c2ccc(OC(F)(F)F)c(F)c2F)cc1C(N)=O` [Compound 378, 5-[2,3-difluoro-4-(trifluoromethoxy)phenyl] sulfonyl-2-[(2-hydroxy-2-methyl-propanoyl)amino] thiophene-3-carboxamide]: the EC50 was found to be 0.0261 µM at CFTR ΔF508 mutant and 1.85 µM on CFTR G551D mutant.
Taken in the same sequence, the figures for `CC(C)(O)C(=O)Nc1sc(S(=O)(=O)c2ccc(C#N)cc2)cc1C(N)=O` [Compound 381, 5-(4-cyanophenyl)sulfonyl-2-[(2-hydroxy-2-methyl-propanoyl)amino] thiophene-3-carboxamide] were 0.0559 µM and 1.31 µM.
The like results for `C[C@H](CO)C(=O)Nc1sc(S(=O)(=O)c2ccc(OC(F)(F)F)cc2)cc1C(N)=O` [Compound 382, 2-[[(2R)-3-hydroxy-2-methyl-propanoyl]amino]-5-[4-(trifluoromethoxy)phenyl] sulfonyl-thiophene-3-carboxamide] were, in that order, 0.0661 µM and 0.873 µM.
Taken in the same sequence, the figures for `Cc1cc(S(=O)(=O)c2cc(C(N)=O)c(NC(=O)C(C)(C)O)s2)ncc1F` [Compound 383, 5-[(5-fluoro-4-methyl-2-pyridyl)sulfonyl]-2-[(2-hydroxy-2-methyl-propanoyl)amino] thiophene-3-carboxamide] were 0.135 µM and 2.61 µM.
For `Cc1ccc(S(=O)(=O)c2cc(C(N)=O)c(NC(=O)C(C)(C)O)s2)nc1` [Compound 384, 2-[(2-hydroxy-2-methyl-propanoyl)amino]-5-[(5-methyl-2-pyridyl)sulfonyl] thiophene-3-carboxamide], the results for the EC50 at CFTR ΔF508 mutant and at CFTR G551D mutant were 0.159 µM and 2.74 µM, respectively.
With `CC(C)(O)C(=O)Nc1sc(S(=O)(=O)c2ccc(Cl)nc2)cc1C(N)=O` [Compound 385, 5-[(6-chloro-3-pyridyl)sulfonyl]-2-[(2-hydroxy-2-methyl-propanoyl)amino] thiophene-3-carboxamide], the EC50 on CFTR ΔF508 mutant was found to be 0.0626 µM; at CFTR G551D mutant, 1.18 µM.
As to `CC(CO)C(=O)Nc1sc(S(=O)(=O)c2cc(Cl)ccc2OC(F)(F)F)cc1C(N)=O` (stereo not shown) [Compound 386, 5-[5-chloro-2-(trifluoromethoxy)phenyl] sulfonyl-2-[(3-hydroxy-2-methyl-propanoyl)amino] thiophene-3-carboxamide], the EC50 worked out at 0.002 µM on CFTR ΔF508 mutant and 0.0259 µM at CFTR G551D mutant.
The like results for `CC(C)(O)C(=O)Nc1sc(S(=O)(=O)c2ccc(Cl)cc2OC(F)(F)F)cc1C(N)=O` [Compound 388, 5-[4-chloro-2-(trifluoromethoxy)phenyl] sulfonyl-2-[(2-hyroxy-2-methyl-propanoyl)amino] thiophene-3-carboxamide] were, in that order, 0.0433 µM and 0.695 µM.
